# According to patent US10206902B2, “Mono- or di-substituted indoles as dengue viral replication inhibitors” (priority 2014, dated 2019):
# Assay: Chiral stability of Enantiomer 1A at pH 7.4 (ee% by chiral SFC)
# Assay type: physicochemical
# Conditions: buffered solution pH 7.4, 5 μM
# Experimental: The chiral stability of Enantiomer 1A (R═OMe) was evaluated by determination of the enantiomeric excess (ee %) after incubation for 24 h and 48 h in a buffered solution at pH 7.4 at 40° C. and 60° C. To assess the influence of the methoxy-substituent of Enantiomer 1A (R═OMe) on the stability against racemization, the chiral stability of Enantiomer 1′A (R═H) was tested under the same conditions.
# To this end, 5 μM buffered (pH=7.4) solutions of 1A and 1′A were prepared by mixing 25 μL of a 100 μM solution of 1A or 1′A in DMSO with 475 μL aqueous buffer pH 7.4. Samples were taken 24 h and 48 h after incubation at 40° C. and 60° C. The analytical samples were analyzed by Chiral SFC (MS detection) and the chiral purity was expressed as the enantiomeric excess (ee %=% enantiomer A−% enantiomer B).
compound,measurement,setting,value
"COc1cc(NC(C(=O)c2c[nH]c3cc(F)ccc23)c2ccc(F)cc2OC)cc(OCCO)c1 (single isomer, unassigned) [Compound 1A, 1-(6-fluoro-1H-indol-3-yl)-2-(4-fluoro-2-methoxyphenyl)-2-((3-(2-hydroxyethoxy)-5-methoxyphenyl)amino)ethanone]",ee% (enantiomeric excess),"40° C., 24 h",100%
same,ee% (enantiomeric excess),"40° C., 48 h",100%
same,ee% (enantiomeric excess),"60° C., 24 h",100%
same,ee% (enantiomeric excess),"60° C., 48 h",96%
